{"source": "paper PMC7531004", "about": "“Discovery of gramicidin A analogues with altered activities by multidimensional screening of a one-bead-one-compound library” (Nature Communications, 2020)", "key": {"[1]": {"test_system": "Streptococcus pyogenes SSI-9", "assay": "Antibacterial activity assay of bead-derived peptides (three concentrations)", "assay_type": "cell-based", "parameters": "key: +++: inhibition by the 640-fold diluted peptide solution; ++: inhibition by the 160-fold diluted solution; +: inhibition by the 40-fold diluted solution; -: no inhibition", "settings": "S. pyogenes, bead-derived peptide solution, three concentrations", "in_short": "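Three stock dilutions per peptide (none, 4-fold, 16-fold in DMSO) are screened in 96-well format. The medium is blood-supplemented cation-adjusted MHB, inoculated with 2 × 10^5 CFU S. pyogenes SSI-9. Growth is read as cell precipitation at 18 h, 37 °C.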"}, "[2]": {"assay": "H+/Na+ transport assay of bead-derived peptides (one-point);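 note: relative to parent gramicidin A activity set to 1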", "assay_type": "biochemical", "parameters": "key: relative activity; mean of two control wells = 1.00", "settings": "bead-derived peptide solution, EYPC/EYPG LUVs", "in_short": "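Pyranine (1.0 mM)-loaded LUVs containing egg yolk phosphatidylglycerol were prepared by film hydration, sonication and extrusion, then mixed with diluted bead-derived peptide in 96-well format and vortexed 30 min at room temperature. Fluorescence was normalized between untreated LUVs (0%) and Triton X-100 lysis (100%).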"}, "[3]": {"settings": "cell viability/%", "in_short": "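First, library peptide stocks are diluted 250-fold in RPMI1640 with 10% heat-inactivated FBS. Next, they are mixed with P388 cells to give 1 × 10^4 cells/mL and incubated 92 h at 37 °C, 5% CO2. Finally, viability (%) is scored by WST-1 absorbance at 415 nm.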"}}, "note": "Where a SMILES comes first, the peptide text is derived from it. [ ]: non-standard residue; d: D form. The star is where a group is joined. NHCH2CH2OH = OCCN*; For = O=C*"}
{"smiles": "CC(C)C[C@@H](NC(=O)[C@H](C)NC(=O)[C@H](NC(=O)[C@H](C)NC(=O)CNC(=O)[C@@H](NC=O)C(C)C)C(C)C)C(=O)N[C@H](C(=O)N[C@@H](C(=O)N[C@@H](Cc1c[nH]c2ccccc12)C(=O)N[C@H](CC(C)C)C(=O)N[C@@H](Cc1c[nH]c2ccccc12)C(=O)N[C@@H](C(=O)N[C@@H](Cc1c[nH]c2ccccc12)C(=O)N[C@@H](C(=O)N[C@@H](Cc1c[nH]c2ccccc12)C(=O)NCCO)[C@H](C)O)[C@H](C)O)C(C)C)C(C)C", "note": "[compound 13040] (For-VGA[dV]A[dL]V[dV]W[dL]W[dT]W[dT]W-NHCH2CH2OH)", "values": [{"measurement": "antibacterial activity", "setting": "[1]", "result": "-"}, {"measurement": "H+/Na+ transport activity normalized against the value of 1 (1.00)", "setting": "[2]", "result": 1.01}, {"measurement": "viability", "setting": "[3]", "result": 100, "unit": "%"}]}
{"smiles": "CC(C)C[C@@H](NC(=O)[C@H](C)NC(=O)[C@H](NC(=O)[C@H](C)NC(=O)CNC(=O)[C@@H](NC=O)C(C)C)[C@H](C)O)C(=O)N[C@H](C(=O)N[C@H](CC(C)C)C(=O)N[C@@H](Cc1c[nH]c2ccccc12)C(=O)N[C@H](CC(C)C)C(=O)N[C@@H](Cc1c[nH]c2ccccc12)C(=O)N[C@H](CC(C)C)C(=O)N[C@@H](Cc1c[nH]c2ccccc12)C(=O)N[C@@H](C(=O)N[C@@H](Cc1c[nH]c2ccccc12)C(=O)NCCO)C(C)C)C(C)C", "note": "[compound 3778] (For-VGA[dT]A[dL]V[dL]W[dL]W[dL]W[dV]W-NHCH2CH2OH)", "values": [{"measurement": "antibacterial activity", "setting": "[1]", "result": "-"}, {"measurement": "H+/Na+ transport activity normalized against the value of 1 (1.00)", "setting": "[2]", "result": 1.08}, {"measurement": "viability", "setting": "[3]", "result": 100, "unit": "%"}]}
{"smiles": "CNC(=O)C[C@@H](NC(=O)[C@H](C)NC(=O)[C@H](NC(=O)[C@H](C)NC(=O)CNC(=O)[C@@H](NC=O)C(C)C)C(C)C)C(=O)N[C@H](C(=O)N[C@@H](C(=O)N[C@@H](Cc1c[nH]c2ccccc12)C(=O)N[C@@H](C(=O)N[C@@H](Cc1c[nH]c2ccccc12)C(=O)N[C@H](CC(C)C)C(=O)N[C@@H](Cc1c[nH]c2ccccc12)C(=O)N[C@H](CC(C)C)C(=O)N[C@@H](Cc1c[nH]c2ccccc12)C(=O)NCCO)C(C)C)C(C)C)C(C)C", "note": "[compound 5211] (For-VGA[dV]A[dD](NHMe)V[dV]W[dV]W[dL]W[dL]W-NHCH2CH2OH)", "values": [{"measurement": "antibacterial activity", "setting": "[1]", "result": "-"}, {"measurement": "H+/Na+ transport activity normalized against the value of 1 (1.00)", "setting": "[2]", "result": 1.05}, {"measurement": "viability", "setting": "[3]", "result": 100, "unit": "%"}]}
{"smiles": "CC(C)C[C@@H](NC(=O)[C@H](C)NC(=O)CNC(=O)[C@@H](NC=O)C(C)C)C(=O)N[C@@H](C)C(=O)N[C@H](CC(C)C)C(=O)N[C@H](C(=O)N[C@H](CC(C)C)C(=O)N[C@@H](Cc1c[nH]c2ccccc12)C(=O)N[C@H](CC(C)C)C(=O)N[C@@H](Cc1c[nH]c2ccccc12)C(=O)N[C@@H](C(=O)N[C@@H](Cc1c[nH]c2ccccc12)C(=O)N[C@@H](C(=O)N[C@@H](Cc1c[nH]c2ccccc12)C(=O)NCCO)[C@H](C)O)[C@H](C)O)C(C)C", "note": "[compound 7156] (For-VGA[dL]A[dL]V[dL]W[dL]W[dT]W[dT]W-NHCH2CH2OH)", "values": [{"measurement": "antibacterial activity", "setting": "[1]", "result": "-"}, {"measurement": "H+/Na+ transport activity normalized against the value of 1 (1.00)", "setting": "[2]", "result": 1.08}, {"measurement": "viability", "setting": "[3]", "result": 100, "unit": "%"}]}
{"smiles": "CNC(=O)C[C@@H](NC(=O)[C@H](Cc1c[nH]c2ccccc12)NC(=O)[C@@H](CC(C)C)NC(=O)[C@@H](NC(=O)[C@@H](CC(C)C)NC(=O)[C@H](C)NC(=O)[C@H](NC(=O)[C@H](C)NC(=O)CNC(=O)[C@@H](NC=O)C(C)C)[C@H](C)O)C(C)C)C(=O)N[C@@H](Cc1c[nH]c2ccccc12)C(=O)N[C@H](CC(C)C)C(=O)N[C@@H](Cc1c[nH]c2ccccc12)C(=O)N[C@H](CC(C)C)C(=O)N[C@@H](Cc1c[nH]c2ccccc12)C(=O)NCCO", "note": "[compound 5284] (For-VGA[dT]A[dL]V[dL]W[dD](NHMe)W[dL]W[dL]W-NHCH2CH2OH)", "values": [{"measurement": "antibacterial activity", "setting": "[1]", "result": "-"}, {"measurement": "H+/Na+ transport activity normalized against the value of 1 (1.00)", "setting": "[2]", "result": 1.02}, {"measurement": "viability", "setting": "[3]", "result": 100, "unit": "%"}]}
{"smiles": "CC(C)C[C@@H](NC(=O)[C@H](C)NC(=O)[C@H](NC(=O)[C@H](C)NC(=O)CNC(=O)[C@@H](NC=O)C(C)C)[C@H](C)O)C(=O)N[C@H](C(=O)N[C@H](CC(C)C)C(=O)N[C@@H](Cc1c[nH]c2ccccc12)C(=O)N[C@@H](C(=O)N[C@@H](Cc1c[nH]c2ccccc12)C(=O)N[C@H](CC(C)C)C(=O)N[C@@H](Cc1c[nH]c2ccccc12)C(=O)N[C@H](CC(C)C)C(=O)N[C@@H](Cc1c[nH]c2ccccc12)C(=O)NCCO)[C@H](C)O)C(C)C", "note": "[compound 131] (For-VGA[dT]A[dL]V[dL]W[dT]W[dL]W[dL]W-NHCH2CH2OH)", "values": [{"measurement": "antibacterial activity", "setting": "[1]", "result": "-"}, {"measurement": "H+/Na+ transport activity normalized against the value of 1 (1.00)", "setting": "[2]", "result": 1.10}, {"measurement": "viability", "setting": "[3]", "result": 100, "unit": "%"}]}
{"smiles": "CC(C)C[C@@H](NC(=O)[C@H](C)NC(=O)CNC(=O)[C@@H](NC=O)C(C)C)C(=O)N[C@@H](C)C(=O)N[C@H](CC(C)C)C(=O)N[C@H](C(=O)N[C@H](CC(C)C)C(=O)N[C@@H](Cc1c[nH]c2ccccc12)C(=O)N[C@H](CC(C)C)C(=O)N[C@@H](Cc1c[nH]c2ccccc12)C(=O)N[C@@H](C(=O)N[C@@H](Cc1c[nH]c2ccccc12)C(=O)N[C@@H](C(=O)N[C@@H](Cc1c[nH]c2ccccc12)C(=O)NCCO)[C@H](C)O)C(C)C)C(C)C", "note": "[compound 7512] (For-VGA[dL]A[dL]V[dL]W[dL]W[dV]W[dT]W-NHCH2CH2OH)", "values": [{"measurement": "antibacterial activity", "setting": "[1]", "result": "-"}, {"measurement": "H+/Na+ transport activity normalized against the value of 1 (1.00)", "setting": "[2]", "result": 1.05}, {"measurement": "viability", "setting": "[3]", "result": 100, "unit": "%"}]}
{"smiles": "CC(C)C[C@@H](NC(=O)[C@H](C)NC(=O)CNC(=O)[C@@H](NC=O)C(C)C)C(=O)N[C@@H](C)C(=O)N[C@@H](C(=O)N[C@H](C(=O)N[C@@H](C(=O)N[C@@H](Cc1c[nH]c2ccccc12)C(=O)N[C@@H](C(=O)N[C@@H](Cc1c[nH]c2ccccc12)C(=O)N[C@H](CC(C)C)C(=O)N[C@@H](Cc1c[nH]c2ccccc12)C(=O)N[C@H](CC(C)C)C(=O)N[C@@H](Cc1c[nH]c2ccccc12)C(=O)NCCO)C(C)C)[C@H](C)O)C(C)C)C(C)C", "note": "[compound 2290] (For-VGA[dL]A[dV]V[dT]W[dV]W[dL]W[dL]W-NHCH2CH2OH)", "values": [{"measurement": "antibacterial activity", "setting": "[1]", "result": "-"}, {"measurement": "H+/Na+ transport activity normalized against the value of 1 (1.00)", "setting": "[2]", "result": 1.14}, {"measurement": "viability", "setting": "[3]", "result": 100, "unit": "%"}]}
{"smiles": "CNC(=O)C[C@@H](NC(=O)[C@H](C)NC(=O)[C@@H](CC(C)C)NC(=O)[C@H](C)NC(=O)CNC(=O)[C@@H](NC=O)C(C)C)C(=O)N[C@H](C(=O)N[C@@H](C(=O)N[C@@H](Cc1c[nH]c2ccccc12)C(=O)N[C@H](CC(C)C)C(=O)N[C@@H](Cc1c[nH]c2ccccc12)C(=O)N[C@@H](C(=O)N[C@@H](Cc1c[nH]c2ccccc12)C(=O)N[C@@H](C(=O)N[C@@H](Cc1c[nH]c2ccccc12)C(=O)NCCO)C(C)C)C(C)C)C(C)C)C(C)C", "note": "[compound 11290] (For-VGA[dL]A[dD](NHMe)V[dV]W[dL]W[dV]W[dV]W-NHCH2CH2OH)", "values": [{"measurement": "antibacterial activity", "setting": "[1]", "result": "-"}, {"measurement": "H+/Na+ transport activity normalized against the value of 1 (1.00)", "setting": "[2]", "result": 1.47}, {"measurement": "viability", "setting": "[3]", "result": 87.6, "unit": "%"}]}
{"smiles": "CNC(=O)C[C@@H](NC(=O)[C@H](C)NC(=O)[C@H](NC(=O)[C@H](C)NC(=O)CNC(=O)[C@@H](NC=O)C(C)C)C(C)C)C(=O)N[C@H](C(=O)N[C@H](CC(C)C)C(=O)N[C@@H](Cc1c[nH]c2ccccc12)C(=O)N[C@H](CC(C)C)C(=O)N[C@@H](Cc1c[nH]c2ccccc12)C(=O)N[C@@H](C(=O)N[C@@H](Cc1c[nH]c2ccccc12)C(=O)N[C@H](CC(C)C)C(=O)N[C@@H](Cc1c[nH]c2ccccc12)C(=O)NCCO)C(C)C)C(C)C", "note": "[compound 1489] (For-VGA[dV]A[dD](NHMe)V[dL]W[dL]W[dV]W[dL]W-NHCH2CH2OH)", "values": [{"measurement": "antibacterial activity", "setting": "[1]", "result": "-"}, {"measurement": "H+/Na+ transport activity normalized against the value of 1 (1.00)", "setting": "[2]", "result": 1.03}, {"measurement": "viability", "setting": "[3]", "result": 100, "unit": "%"}]}
